Measurements published in the METLIN SMRT retention time set (Domingo-Almenara et al. 2019).

Test: gradient 5% acetonitrile 3 min, to 50% in 2 min, to 85% in 15 min, held 3 min, 100 µL/min
Settings: column: Zorbax Extend-C18 2.1 x 50 mm; eluents: water / acetonitrile, 0.1% formic acid
How it was run: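 Standards, all pure, were combined into mixtures of ~100 molecules and run at 100 μL/min on a Zorbax Extend-C18 column (2.1 × 50 mm, 1.8 μm) with water and acetonitrile, each containing 0.1% formic acid. A coupled quadrupole time-of-flight mass spectrometer operated in positive and negative ionization mode. Retention time values come from computationally picked adduct peaks, each inspected manually.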

| RP-LC retention time | Structure (SMILES) |
| --- | --- |
| 677 s | CN(CCCNC(=O)CN1C(=O)CSc2cccn2-c2ccccc21)Cc1ccccc1 |
| 765 s | CCNC(=O)c1nc(C(=O)NCc2ccccc2F)cs1 |
| 731 s | Cc1nc(-c2ccc(C(=O)NC(C)C)cc2)cs1 |
| 765 s | CCC(=O)NCCc1csc(C2CCN(C(=O)CC3CCCCC3)CC2)n1 |
| 730 s | Nc1ccc(C(=O)C(=O)c2ccc(N)cc2)cc1 |
| 790 s | CC(Cc1ccco1)NC(=O)Cn1c2ccccc2c2cnn(C)c(=O)c21 (stereo not given) |
| 1110 s | CC1CCN(c2nn(CC(=O)Nc3ccccc3)c(=O)c3ccccc23)CC1 |
| 1110 s | Cc1ccc(NC(=O)Cn2c(=O)cc(-c3nc(C(C)C)no3)c3ccccc32)c(Cl)c1 |
| 788 s | CCOc1cc(C(=O)Nc2c(-c3ccc(F)cc3)nc3ccccn23)cc(OCC)c1OCC |
| 809 s | CCc1cccc(NC(=O)Cn2c(-c3cnccn3)nc(C)c(C)c2=O)c1 |
| 1170 s | CCC(Sc1ncnc2c1cnn2-c1ccc(F)cc1)C(=O)OC (stereo not given) |
| 729 s | Cc1nnc2c(NC(=O)c3ccc(Cl)s3)cccn12 |
| 559 s | Cc1ccc(C(=O)NCCc2cn3ccsc3n2)cc1[N+](=O)[O-] |
| 702 s | COc1cc(C(=O)N(Cc2cccs2)C2CCS(=O)(=O)C2)cc(OC)c1OC (stereo not given) |
| 700 s | O=C(CN1CCN(Cc2ccccc2)CC1)Nc1nc(-c2ccccc2)cs1 |
| 608 s | CCCCN(C)C(=O)c1cn2cc(C)ccc2n1 |
| 633 s | O=C(CCC1CCN(c2cc(NC3CC3)ncn2)CC1)NCc1cccs1 |
| 559 s | CCC(=O)N1CCc2c(sc3ncnc(NCc4ccccn4)c23)C1 |
| 693 s | COc1ccccc1NC(=O)c1[nH]c2cc(C)sc2c1CN1CCOCC1 |
| 890 s | CC(C)n1cc(S(=O)(=O)Nc2ccc(F)cc2F)c2cccnc21 |
| 714 s | CCc1nnc2c(=O)n(CC(=O)NC(C)c3ccccc3)c3cccnc3n12 (stereo not given) |
| 639 s | COCCC(=O)N1CCCn2cc(-c3cccc(C#N)c3)nc21 |
| 623 s | CCN(CCN(C)C)c1ccc(C(=O)O)cc1NS(=O)(=O)c1ccc(C)cc1 |
| 1160 s | Cc1ccc(C)c(CS(=O)(=O)N2CCc3nc(-c4ccc(F)cc4)ncc3C2)c1 |
| 793 s | CN1C(=O)c2cc(C(=O)NCc3cccc(Cl)c3)nn2CC1(C)C(=O)NC1CCCCC1 (stereo not given) |
| 869 s | Cc1cnn(Cc2nc(-c3ccc(NC(=O)COc4ccccc4)cc3)oc2C)c1 |

The next lines start with the compound.

| Structure (SMILES) | RP-LC retention time |
| --- | --- |
| O=C(NC1CCCCCCC1)C1CCCN(S(=O)(=O)c2c[nH]c(C(=O)N3CCCC3)c2)C1 (stereo not given) | 854 s |
| CC(=C/c1ccccc1)/C=C1/NC(=S)NC1=O | 880 s |
| COc1ccc(-c2nc(NCCN3CCC(C)CC3)c3ccccc3n2)cc1 | 580 s |
| Cc1csc(NC(=O)C2CCCN(S(=O)(=O)c3c[nH]c(C(=O)N4CCCC4)c3)C2)n1 (stereo not given) | 714 s |
| Cc1cc(S(=O)(=O)N2CCC(n3cnnc3-c3ccccc3)CC2)ccc1Cl | 869 s |
| Cc1ccccc1C(=O)N1C[C@@H](F)C[C@H]1C(=O)N1CCOCC1 | 620 s |
| O=C(c1ccsc1)N1CCCN(c2cc(-c3ccccc3)[nH]n2)CC1 | 741 s |
| CCC(CC)CN1CCC(n2c(C)cnc2-c2ccncc2)C1 (stereo not given) | 542 s |
| O=S(=O)(c1ccccc1)N1CCCCC1c1nc(-c2ccccc2)n[nH]1 (stereo not given) | 851 s |
| CC(C)c1ccc(S(=O)(=O)N2CCc3nc(-c4ccccc4)ncc3C2)cc1 | 1230 s |
| CCOc1cc(=O)n2c(c1C(=O)Nc1cc(OC)cc(OC)c1)CCCC2 | 718 s |
| Cc1cc(C)cc(NC(=O)C2CCCN(S(=O)(=O)c3c[nH]c(C(=O)N4CCCCCC4)c3)C2)c1 (stereo not given) | 955 s |
| O=C(c1cccc(OCC2CCCN(C(=O)C3CCCO3)C2)c1)N1CCCCC1 (stereo not given) | 750 s |
| Cc1cc(C)c(S(=O)(=O)N2CCC(c3cc4n(n3)CCCN(C)C4=O)CC2)cc1C | 888 s |
| COCCc1noc(C2CN(C(=O)c3cn(C)cn3)C2)n1 | 555 s |
| COc1ccc(/C=C/C(=O)c2c(OC)cc(O)cc2OC)cc1 | 1160 s |
| CN(Cc1ccccc1)C(=O)C(=O)c1c[nH]c2ccccc12 | 800 s |
| CC(C)Cn1c(=O)c(N2CCN(S(=O)(=O)Cc3ccccc3)CC2)nc2ccncc21 | 740 s |
| COc1ccc(-c2nnc(N3CCC(C(=O)N4CCC5(CC4)OCCO5)CC3)o2)cc1 | 704 s |
